Data published in PMC11883000, “Structure-function relationship of ASH1L and histone H3K36 and H3K4 methylation” (Nature Communications, 2025).
Where two headings read alike, the source gives them in different places. Blank lines part the entries; values can stand above or below the compound they belong to.

Key:
[1] = target: T1, ASH1LPHD (Homo sapiens, UniProt Q9NR48); test: Tryptophan fluorescence binding, WT ASH1LPHD
T1 construct: ASH1LPHD (aa 2579-2629); GST (N, cleaved yes); made in house; host or cells: E. coli BL21 or Rosetta2 (DE3) pLysS
Text: Human ASH1L constructs ASH1LPHD (aa 2579-2629), ASH1LBD (aa 2430-2564) and ASH1LPHD-BAH (aa 2579- 2794 and 2579-2834), ASH1LBD-PHD (aa 2430-2629) were cloned into pDEST15 vector with a TEV or Precission cleavage site. ASH1LBD-PHD-BAH (aa 2436-2833), ASH1LSET-BD-PHD (aa 2074-2629) and ASH1LSET-BD-PHD-BAH (aa 2069-2834) were in pGEX6P-1 and pMOCR vectors. Mutants of Ash1LPHD and Ash1LBD were generated following Quikchange mutagenesis protocols. Each construct was expressed in BL21 or Rosetta2 (DE3) pLysS cells in LB or minimal media supplemented with ^15NH4Cl (and ZnCl2 for PHD finger-containing constructs). Cultures were induced with 0.5 mM IPTG and grown for 18 h at 16 °C. After harvesting, the GST-tagged proteins were purified using glutathione agarose (Thermo Scientific) in 20 mM Tris pH 7.5, 150-500 mM NaCl, 5 mM MgCl2 and 2 mM DTT. For experiments requiring GST-tagged constructs, the proteins were eluted in a buffer containing 20 mM Tris pH 7.5, 150-500 mM NaCl, 5 mM MgCl2, 50 mM reduced glutathione and 2 mM DTT. For crystallography and biochemical assays, the GST tag was cleaved overnight at 4 °C with TEV or PreScission protease, and proteins were further purified by size exclusion chromatography (SEC). Protein fractions were checked for purity by SDS-PAGE and concentrated in a concentrator (Millipore).
(§1) Fluorescence spectra were collected at 25 °C on a Fluoromax-3 and Fluoromax-4 plus C spectrofluorometers (HORIBA). […] Emission spectra were recorded between 320 and 360 nm with a 0.5 nm step size and a 0.5 s integration time. The Kd values were determined using a nonlinear least-squares analysis and the equation:3 ΔI=ΔImax((L+P+Kd)−L+P+Kd^2−4[P][L])/2[P] where [L] is concentration of the peptide, [P] is concentration of the protein, ΔI is the observed change of signal intensity, and ΔImax is the difference in signal intensity of the free and bound states of the protein. The Kd values were averaged over three independent experiments with error calculated as the standard deviation between the runs.

[2] = target: T2, ASH1LPHD D2584A (Homo sapiens, UniProt Q9NR48, D2584A); test: Tryptophan fluorescence binding, ASH1LPHD D2584A; conditions: 25 °C, pH 7.5, mean ± S.D., three independent experiments
T2 construct: ASH1LPHD (aa 2579-2629); GST (N, cleaved yes); made in house; host or cells: E. coli BL21 or Rosetta2 (DE3) pLysS
Text: (§2) Human ASH1L constructs ASH1LPHD (aa 2579-2629), ASH1LBD (aa 2430-2564) and ASH1LPHD-BAH (aa 2579- 2794 and 2579-2834), ASH1LBD-PHD (aa 2430-2629) were cloned into pDEST15 vector with a TEV or Precission cleavage site. ASH1LBD-PHD-BAH (aa 2436-2833), ASH1LSET-BD-PHD (aa 2074-2629) and ASH1LSET-BD-PHD-BAH (aa 2069-2834) were in pGEX6P-1 and pMOCR vectors. Mutants of Ash1LPHD and Ash1LBD were generated following Quikchange mutagenesis protocols. Each construct was expressed in BL21 or Rosetta2 (DE3) pLysS cells in LB or minimal media supplemented with ^15NH4Cl (and ZnCl2 for PHD finger-containing constructs). Cultures were induced with 0.5 mM IPTG and grown for 18 h at 16 °C. […]
as §1

[3] = target: T3, ASH1LPHD D2595A (Homo sapiens, UniProt Q9NR48, D2595A); test: Tryptophan fluorescence binding, ASH1LPHD D2595A; conditions: 25 °C, pH 7.5, mean ± S.D., three independent experiments
T3 construct: ASH1LPHD (aa 2579-2629); GST (N, cleaved yes); made in house; host or cells: E. coli BL21 or Rosetta2 (DE3) pLysS
Text: as §2, §1

[4] = target: T4, ASH1LPHD Q2601K (Homo sapiens, UniProt Q9NR48, Q2601K); test: Tryptophan fluorescence binding, ASH1LPHD Q2601K; conditions: 25 °C, pH 7.5, mean ± S.D., three independent experiments
T4 construct: ASH1LPHD (aa 2579-2629); GST (N, cleaved yes); made in house; host or cells: E. coli BL21 or Rosetta2 (DE3) pLysS
Text: as §2, §1

[5] = target: T5, ASH1LPHD-BAH (Homo sapiens, UniProt Q9NR48); test: Tryptophan fluorescence binding, ASH1LPHD-BAH; conditions: 25 °C, pH 7.5, mean ± S.D., three independent experiments
T5 construct: ASH1LPHD-BAH (aa 2579- 2794 and 2579-2834); GST (N, cleaved yes); made in house; host or cells: E. coli BL21 or Rosetta2 (DE3) pLysS
Text: as §2, §1

[6] = test system: H3K4me3-NCP; assay type: binding; conditions: EMSA; 0.025 µM nucleosome, increasing protein, pH 7.5, on ice 5 min
[7] = test system: H3K4me3-NCP; test: Liquid HMT assay of GST-ASH1LSET-BD-PHD on H3K4me3-nucleosomes; assay type: biochemical; conditions: D2595K mutant compared to WT ASH1LSET-BD-PHD on H3K4me3-NCP; presence or absence of MRG15; 3H-SAM, 60 min at 30 °C, pH 8
Protocol: Fig. 6 Binding of ASH1LPHD to H3K4me3 inhibits enzymatic activity of ASH1L. a Overlay of ^1H,^15N HSQC spectra of ASH1LBD in the absence (black) or presence of the indicated molar ratios of ASH1LSET. b Overlay of ^1H,^15N HSQC spectra of ASH1LPHD in the absence (black) or presence (blue) of ASH1LSET. c Liquid histone methyltransferase (HMT) assays of GST-ASH1LSET-BD-PHD-BAH on recombinant nucleosomes carrying H3K4me3 or unmodified NCP. GST-ASH1LSET-BD-PHD-BAH was pre-incubated with substrate and MRG15 (or BSA) prior addition of ^3H S-adenosyl methionine. GST, control. […] Live cells were counted over a 6-day time course. […]
Recombinant ASH1L (WT and mutant) constructs, tagged at the N-terminus with GST and at the C-terminus with 6XHis, were generated and purified using Sepharose beads and Ni-NTA beads. […] Methyltransferase activity of the proteins was measured with 0.5 μCi of ^3H labeled S-adenosyl methionine (18 Ci/mmol; PerkinElmer Life Sciences). […] The reactions were captured on P81 filter paper, the free ^3H-labeled SAM was washed away, and the paper was analyzed by Liquid Scintillation.

[8] = test system: ASH1LBD; test: NMR titration (1H,15N HSQC), ASH1LBD; assay type: binding, Human; conditions: unlabeled ASH1LSET titrated into 15N-labeled ASH1LBD
Text: as §2, with “°C. After harvesting, the GST-tagged proteins were purified using glutathione agarose (Thermo Scientific) in 20 mM Tris pH 7.5, 150-500 mM NaCl, 5 mM MgCl2 and 2 mM DTT.” for “°C.”
(§3) NMR experiments were performed at 298 K on Varian 600 MHz and 900 MHZ spectrometers equipped with a cryogenic probe. Chemical shift perturbation experiments were carried out using 0.1–0.2 mM uniformly ^15N-labeled wild type or mutant proteins in 25 mM Tris pH 7.5 buffer, supplemented with 150 mM NaCl, 5 mM DTT and 5-7% D2O. ^1H,^15N heteronuclear single quantum coherence (HSQC) or transverse relaxation optimized spectroscopy (TROSY) spectra were recorded in the absence and presence of increasing concentrations of ligands. […]

[9] = target: T1, ASH1LPHD; test: NMR titration (1H,15N HSQC), WT ASH1LPHD; assay type: binding; conditions: unlabeled ASH1LSET titrated into 15N-labeled ASH1LPHD
Text: as §2, with “°C. After harvesting, the GST-tagged proteins were purified using glutathione agarose (Thermo Scientific) in 20 mM Tris pH 7.5, 150-500 mM NaCl, 5 mM MgCl2 and 2 mM DTT.” for “°C.”
as §3

[10] = WT, summary of tryptophan fluorescence and MST, di- and trimethylated peptides, read-out: binding affinity

Compound: ASH1LPHD: Human ASH1L PHD finger (aa 2579-2629) (HEKDDDVIRCICGLYKDEGLMIQCDKCMVWQHCDCMGVNSDVEHYLCEQCD; left off: GST, end not stated, cleaved)
binding to H3K4me3-NCP [6]: incapable

Compound: ASH1LSET-BD-PHD D2595K mutant: D2595K mutant of ASH1LSET-BD-PHD (aa 2074-2629)
methyltransferase activity [7]: increase in the methyltransferase activity

Continued, in another order:

Kd [1, 10]: 1 to 2 µM
Kd ([1]; tryptophan fluorescence, H3 aa 1-12, excitation 295 nm, emission 320-360 nm, 25 °C, 0.5–2 μM protein, 20–25 mM Tris pH 7.5, 150 mM NaCl, 3 mM DTT, mean ± S.D., three independent experiments, read-out: Kd): 1 ± 0.4 µM
Compound: C[C@H](N)C(=O)N[C@@H](CCCNC(=N)N)C(=O)N[C@H](C(=O)N[C@@H](CCCCN(C)C)C(=O)N[C@@H](CCC(N)=O)C(=O)N[C@H](C(=O)N[C@@H](C)C(=O)N[C@@H](CCCNC(=N)N)C(=O)N[C@@H](CCCCN)C(=O)N[C@@H](CO)C(=O)N[C@H](C(=O)NCC(=O)O)[C@@H](C)O)[C@@H](C)O)[C@@H](C)O [H3K4me2]

Kd [2]: 5 to 7 µM
Kd [1, 10]: 1 to 2 µM
Kd [3]: 5 to 7 µM
Kd [4]: 1 ± 0.3 µM
Kd [5]: 1 ± 0.4 µM
Compound: C[C@H](N)C(=O)N[C@@H](CCCNC(=N)N)C(=O)N[C@H](C(=O)N[C@@H](CCCC[N+](C)(C)C)C(=O)N[C@@H](CCC(N)=O)C(=O)N[C@H](C(=O)N[C@@H](C)C(=O)N[C@@H](CCCNC(=N)N)C(=O)N[C@@H](CCCCN)C(=O)N[C@@H](CO)C(=O)N[C@H](C(=O)NCC(=O)O)[C@@H](C)O)[C@@H](C)O)[C@@H](C)O [H3K4me3]

interaction of ASH1LSET with ASH1LPHD (CSPs) [9]: does not interact with ASH1LPHD
Compound: ASH1LSET: isolated unlabeled ASH1LSET domain
interaction of ASH1LSET with ASH1LBD (CSPs) [8]: direct contact with ASH1LBD
